Consider two molecules from article PMC4929558, “A novel AhR ligand, 2AI, protects the retina from environmental stress” (Scientific Reports, 2016).

In assay [1] the target is T1, human AhR protein (humanized AhR liver cytosol) (Homo sapiens, UniProt P35869).
T1 construct: human AhR expressed in liver of humanized transgenic mice, B6.Cg-Ahr^tm3.1Bra Tg (Alb-cre, Ttr-AhR)1GHP; hepatic cytosol, not purified
T1 sequence (P35869 11-848): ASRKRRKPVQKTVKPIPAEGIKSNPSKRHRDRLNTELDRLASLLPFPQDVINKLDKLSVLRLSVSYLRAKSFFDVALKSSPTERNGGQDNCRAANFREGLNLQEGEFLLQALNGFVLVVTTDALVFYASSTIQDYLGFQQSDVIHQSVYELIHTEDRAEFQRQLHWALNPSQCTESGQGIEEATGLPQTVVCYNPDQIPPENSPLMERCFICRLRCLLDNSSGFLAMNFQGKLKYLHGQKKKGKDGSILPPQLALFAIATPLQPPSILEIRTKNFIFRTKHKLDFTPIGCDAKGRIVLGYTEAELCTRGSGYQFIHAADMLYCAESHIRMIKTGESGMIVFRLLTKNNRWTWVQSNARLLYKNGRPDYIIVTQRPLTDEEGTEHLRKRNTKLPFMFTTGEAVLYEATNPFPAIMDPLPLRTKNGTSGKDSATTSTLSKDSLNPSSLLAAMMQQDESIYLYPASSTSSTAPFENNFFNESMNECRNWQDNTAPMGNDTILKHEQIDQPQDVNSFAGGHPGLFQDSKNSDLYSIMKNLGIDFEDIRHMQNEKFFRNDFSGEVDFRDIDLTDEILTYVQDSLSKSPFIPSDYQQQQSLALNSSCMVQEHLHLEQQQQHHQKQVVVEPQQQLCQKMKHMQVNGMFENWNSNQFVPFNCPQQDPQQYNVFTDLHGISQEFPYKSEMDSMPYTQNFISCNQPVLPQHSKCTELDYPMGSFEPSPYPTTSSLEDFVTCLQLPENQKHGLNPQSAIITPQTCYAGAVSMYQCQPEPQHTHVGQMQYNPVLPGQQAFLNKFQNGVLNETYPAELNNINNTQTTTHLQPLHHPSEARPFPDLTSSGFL
As to the kind of experiment: photoaffinity ligand competition, hepatic cytosol. The settings on record: competition with 2-azido-3-[125I]iodo-7,8-dibromodibenzo-p-dioxin (0.21 pmol, saturating), 150 μg liver protein, room temperature 20 min, then UV 402 nm. The class given is binding.

Assay [2] deals with T2, AhR (XRE-luciferase reporter assay) (Homo sapiens, UniProt P35869).
T2 construct: with Aryl hydrocarbon receptor nuclear translocator
T2 sequence (P35869 11-848): T1 sequence (P35869 11-848)
As to the kind of experiment: XRE-luciferase reporter assay in cells. The class given is cell-based. The settings on record: agonist. (In general: In a reporter assay the amount or activity of a reporter protein is the signal.)

The target of assay [3] is T1, human AhR protein (humanized AhR liver cytosol). The assay is described as follows: photoaffinity labelling, SDS-PAGE, gamma counting. The class given is binding. The settings on record: labelled compound; covalent after UV photolysis; 0.21 pmol per tube, 150 μg liver protein.

As a reminder, the EC50 is the concentration that produces a half-maximal response. Low readings indicate greater potency, high ones weaker potency. Regarding `Nc1ccccc1-c1cc2ccccc2[nH]1` [2AI], the “% photoaffinity label bound” value in assay [1] is listed as 2AI was able to out-compete the photoaffinity label bound to the human AhR protein. This molecule had an EC50 in assay [2] of 3.5 µM. Regarding `[N-]=[N+]=Nc1cc2c(cc1I)Oc1cc(Br)c(Br)cc1O2` [PAL, 2-azido-3-[125I]iodo-7,8-dibromodibenzo-p-dioxin], in assay [3], the “photoaffinity labelling, SDS-PAGE, gamma counting” value is “Labeled AHR bands were excised and counted using a γ counter”.
